Measurements taken from patent publication US8093275B2, “Oxazolone and pyrrolidinone-substituted pryidine amides as P2X3 and P2X2/3 antagonists” (Roche Palo Alto LLC, priority 2009, dated 2012).

How the values were obtained:
rat P2X3 receptor = target: T1, rat P2X3 receptor (Rattus norvegicus, UniProt P49654); assay: P2X3 FLIPR (Fluorometric Imaging Plate Reader) assay; format: cell-based; details: CHO-K1 cells transfected with rat P2X3, agonist α,β-meATP 1 μM, FLIPR calcium fluorescence; for Ki: read-out: pKi P2X3 (converted)
T1 construct: expressed in transfected cells; host or cells: CHO-K1
T1 sequence (P49654 1-397): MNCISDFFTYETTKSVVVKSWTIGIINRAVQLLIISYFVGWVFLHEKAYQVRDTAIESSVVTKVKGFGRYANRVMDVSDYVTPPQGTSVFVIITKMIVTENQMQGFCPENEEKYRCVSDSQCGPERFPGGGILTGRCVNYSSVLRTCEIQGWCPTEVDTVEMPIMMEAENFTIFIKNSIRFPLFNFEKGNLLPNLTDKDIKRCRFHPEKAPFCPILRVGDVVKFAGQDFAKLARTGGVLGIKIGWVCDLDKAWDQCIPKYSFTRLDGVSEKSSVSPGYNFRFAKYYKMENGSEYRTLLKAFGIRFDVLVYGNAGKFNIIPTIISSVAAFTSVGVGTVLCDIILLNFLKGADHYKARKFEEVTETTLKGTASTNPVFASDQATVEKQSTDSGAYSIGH
Method: (§1) CHO-K1 cells were transfected with cloned rat P2X3 or human P2X2/3 receptor subunits and passaged in flasks. 18-24 hours before the FLIPR experiment, cells were released from their flasks, centrifuged, and resuspended in nutrient medium at 2.5×10^5 cells/ml. The cells were aliquoted into black-walled 96-well plates at a density of 50,000 cells/well and incubated overnight in 5% CO2 at 37° C. On the day of the experiment, cells were washed in FLIPR buffer (calcium- and magnesium-free Hank's balanced salt solution, 10 mM HEPES, 2 mM CaCl2, 2.5 mM probenecid; FB). Each well received 100 μl FB and 100 μl of the fluorescent dye Fluo-3 AM [2 μM final conc.]. After a 1 hour dye loading incubation at 37° C., the cells were washed 4 times with FB, and a final 75 μl/well FB was left in each well.
(§2) Test compounds (dissolved in DMSO at 10 mM and serially diluted with FB) or vehicle were added to each well (25 μl of a 4× solution) and allowed to equilibrate for 20 minutes at room temperature. The plates were then placed in the FLIPR and a baseline fluorescence measurement (excitation at 488 nm and emission at 510-570 nm) was obtained for 10 seconds before a 100 μl/well agonist or vehicle addition. The agonist was a 2× solution of α,β-meATP producing a final concentration of 1 μM (P2X3) or 5 μM (P2X2/3). Fluorescence was measured for an additional 2 minutes at 1 second intervals after agonist addition. A final addition of ionomycin (5 μM, final concentration) was made to each well of the FLIPR test plate to establish cell viability and maximum fluorescence of dye-bound cytosolic calcium. Peak fluorescence in response to the addition of α,β-meATP (in the absence and presence of test compounds) was measured and inhibition curves generated using nonlinear regression. PPADS, a standard P2X antagonist, was used as a positive control.

human P2X2/3 receptor = target: T2, human P2X2/3 receptor (Homo sapiens, UniProt P56373+Q9UBL9); assay: P2X2/3 FLIPR (Fluorometric Imaging Plate Reader) assay; format: cell-based; details: CHO-K1 cells transfected with human P2X2/3; agonist α,β-meATP 5 μM; FLIPR calcium fluorescence; read-out: pKi P2X2/3 (converted)
T2 construct: expressed in transfected cells; host or cells: CHO-K1
T2 sequence (Q9UBL9 1-471): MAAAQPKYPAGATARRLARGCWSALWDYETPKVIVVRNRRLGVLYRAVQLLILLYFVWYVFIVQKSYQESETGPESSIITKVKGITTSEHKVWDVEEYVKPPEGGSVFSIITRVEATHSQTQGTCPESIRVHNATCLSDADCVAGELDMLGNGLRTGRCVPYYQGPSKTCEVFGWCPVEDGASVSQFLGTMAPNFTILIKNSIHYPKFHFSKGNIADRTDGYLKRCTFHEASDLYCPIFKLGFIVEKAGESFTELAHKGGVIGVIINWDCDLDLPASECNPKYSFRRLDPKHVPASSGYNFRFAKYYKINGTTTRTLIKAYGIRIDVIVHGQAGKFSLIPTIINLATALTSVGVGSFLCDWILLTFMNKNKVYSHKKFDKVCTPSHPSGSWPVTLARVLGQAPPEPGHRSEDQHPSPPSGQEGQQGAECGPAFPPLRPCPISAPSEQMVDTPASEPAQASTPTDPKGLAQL
T2 sequence (P56373 1-397): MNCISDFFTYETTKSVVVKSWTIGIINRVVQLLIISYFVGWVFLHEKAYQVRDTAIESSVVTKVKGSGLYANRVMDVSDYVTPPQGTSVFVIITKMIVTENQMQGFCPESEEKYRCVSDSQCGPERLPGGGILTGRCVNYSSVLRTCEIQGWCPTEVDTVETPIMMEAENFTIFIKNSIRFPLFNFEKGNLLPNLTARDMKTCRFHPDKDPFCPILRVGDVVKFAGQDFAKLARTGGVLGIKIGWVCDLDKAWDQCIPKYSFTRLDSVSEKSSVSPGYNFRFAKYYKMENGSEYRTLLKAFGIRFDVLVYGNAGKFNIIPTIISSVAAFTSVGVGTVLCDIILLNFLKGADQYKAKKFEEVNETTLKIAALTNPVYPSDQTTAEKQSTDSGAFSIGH
Method: as §1, §2

Row | Ki (rat P2X3 receptor) [nM] | Ki (human P2X2/3 receptor) [nM] | pKi P2X3 (rat P2X3 receptor) | SMILES
1 | 2570 |  |  | Cc1ccc(-c2cc(C(=O)N[C@@H](C)CO)cc(N3C(=O)OC[C@@H]3C(C)C)c2)cc1 [Compound 43, 5-((S)-4-Isopropyl-2-oxo-oxazolidin-3-yl)-4′-methyl-biphenyl-3-carboxylic acid ((S)-2-hydroxy-1-methyl-ethyl)-amide]
2 | 7.41 | 117 |  | Cc1ccc(-c2cc(C(=O)NC(C)c3cnccn3)cc(N3C(=O)Cc4ccccc43)c2)nc1 (stereo not shown) [Compound 6, 3-(5-Methyl-pyridin-2-yl)-5-(2-oxo-2,3-dihydro-indol-1-yl)-N-(1-pyrazin-2-yl-ethyl)-benzamide]
3 | 3.55 |  |  | Cc1ccc(-c2cc(C(=O)NCc3cnc(C)cn3)cc(N3C(=O)OCC3(C)C)c2)nc1 [Compound 21, 3-(4,4-Dimethyl-2-oxo-oxazolidin-3-yl)-N-(5-methyl-pyrazin-2-ylmethyl)-5-(5-methyl-pyridin-2-yl)-benzamide]
4 | 6.03 | 141 |  | Cc1ccc(-c2cc(C(=O)NCc3cncnc3)cc(-n3c(=O)oc4ccccc43)c2)nc1 [Compound 12, 3-(5-Methyl-pyridin-2-yl)-5-(2-oxo-benzooxazol-3-yl)-N-pyrimidin-5-ylmethyl-benzamide]
5 | 5250 |  |  | COCC(C)NC(=O)c1cc(-c2ccc(C)cc2)cc(N2CCNC2=O)c1 (stereo not shown) [Compound 52, 4′-Methyl-5-(2-oxo-imidazolidin-1-yl)-biphenyl-3-carboxylic acid (2-methoxy-1-methyl-ethyl)-amide]
6 | 30.2 | 2040 |  | Cc1ccc(-c2cc(C(=O)NCc3cnc(C)cn3)cc(N3C(=O)CCC3C)c2)nc1 (stereo not shown) [Compound 28, 3-(2-Methyl-5-oxo-pyrrolidin-1-yl)-N-(5-methyl-pyrazin-2-ylmethyl)-5-(5-methyl-pyridin-2-yl)-benzamide]
7 | 4.57 | 24.5 |  | Cc1ccc(-c2cc(C(=O)NCc3ncc(C)cn3)cc(-n3c(=O)oc4ccccc43)c2)nc1 [Compound 32, 3-(5-Methyl-pyridin-2-yl)-N-(5-methyl-pyrimidin-2-ylmethyl)-5-(2-oxo-benzooxazol-3-yl)-benzamide]
8 | 7.59 | 339 |  | CCC1COC(=O)N1c1cc(C(=O)NC(C)c2cnccn2)cc(-c2ccc(C)cn2)c1 (stereo not shown) [Compound 18, 3-(4-Ethyl-2-oxo-oxazolidin-3-yl)-5-(5-methyl-pyridin-2-yl)-N-(1-pyrazin-2-yl-ethyl)-benzamide]
9 | 1000 |  |  | Cc1ccc(-c2cc(C(=O)NC(C)c3cnccn3)cc(N3C(=O)OC[C@H]3C)c2)nc1 (stereo partly drawn) [Compound 15, 3-((R)-4-Methyl-2-oxo-oxazolidin-3-yl)-5-(5-methyl-pyridin-2-yl)-N-(1-pyrazin-2-yl-ethyl)-benzamide]
10 | 5.25 | 562 |  | COC[C@@H](C)NC(=O)c1cc(-c2ccc(C)cn2)cc(N2C(=O)OC[C@H]2C(C)C)c1 [Compound 7, 3-((R)-4-Isopropyl-2-oxo-oxazolidin-3-yl)-N-((R)-2-methoxy-1-methyl-ethyl)-5-(5-methyl-pyridin-2-yl)-benzamide]
11 | 2.45 | 93.3 |  | Cc1ccc(-c2cc(C(=O)N[C@@H](C)CO)cc(N3C(=O)OC[C@H]3C(C)C)c2)c(F)c1 [Compound 46, 2′-Fluoro-5-((R)-4-isopropyl-2-oxo-oxazolidin-3-yl)-4′-methyl-biphenyl-3-carboxylic acid ((S)-2-hydroxy-1-methyl-ethyl)-amide]
12 | 575 |  |  | COCC(C)NC(=O)c1cc(-c2ccc(C)cc2)cc(N2C(=O)CCC2C)c1 (stereo not shown) [Compound 36, 4′-Methyl-5-(2-methyl-5-oxo-pyrrolidin-1-yl)-biphenyl-3-carboxylic acid (2-methoxy-1-methyl-ethyl)-amide]
13 | 7.94 | 28.8 |  | Cc1ccc(-c2cc(C(=O)NCc3cnc(C)cn3)cc(-n3c(=O)oc4ccccc43)c2)nc1 [Compound 1, N-(5-Methyl-pyrazin-2-ylmethyl)-3-(5-methyl-pyridin-2-yl)-5-(2-oxo-benzooxazol-3-yl)-benzamide]
14 | 3.55 | 26.3 |  | Cc1ccc(-c2cc(C(=O)NC(C)c3cnccn3)cc(N3C(=O)OC[C@H]3C(C)C)c2)nc1 (stereo partly drawn) [Compound 10, 3-((R)-4-Isopropyl-2-oxo-oxazolidin-3-yl)-5-(5-methyl-pyridin-2-yl)-N-(1-pyrazin-2-yl-ethyl)-benzamide]
15 |  |  | 5.28 | COCC(C)NC(=O)c1cc(-c2ccc(C)cc2)cc(N2CCNC2=O)c1 (stereo not shown) [Compound 35, 4′-Methyl-5-(2-oxo-imidazolidin-1-yl)-biphenyl-3-carboxylic acid (2-methoxy-1-methyl-ethyl)-amide]
16 | 85.1 |  |  | CCC[C@@H]1COC(=O)N1c1cc(C(=O)NC(C)c2cnccn2)cc(-c2ccc(C)cn2)c1 (stereo partly drawn) [Compound 23, 3-(5-Methyl-pyridin-2-yl)-5-((R)-2-oxo-4-propyl-oxazolidin-3-yl)-N-(1-pyrazin-2-yl-ethyl)-benzamide]
17 | 1020 |  |  | Cc1ccc(-c2cc(C(=O)NCc3cnc(C)cn3)cc(N3C(=O)OC[C@@H]3C(C)C)c2)cc1 [Compound 44, 5-((S)-4-Isopropyl-2-oxo-oxazolidin-3-yl)-4′-methyl-biphenyl-3-carboxylic acid (5-methyl-pyrazin-2-ylmethyl)-amide]
18 | 166 |  |  | CCC[C@@H]1COC(=O)N1c1cc(C(=O)NCc2cnc(C)cn2)cc(-c2ccc(C)cn2)c1 [Compound 24, N-(5-Methyl-pyrazin-2-ylmethyl)-3-(5-methyl-pyridin-2-yl)-5-((R)-2-oxo-4-propyl-oxazolidin-3-yl)-benzamide]
19 | 912 |  |  | Cc1ccc(-c2cc(C(=O)N[C@@H](C)CO)cc(N3C(=O)CCC3C)c2)nc1 (stereo partly drawn) [Compound 26, N-((S)-2-Hydroxy-1-methyl-ethyl)-3-(2-methyl-5-oxo-pyrrolidin-1-yl)-5-(5-methyl-pyridin-2-yl)-benzamide]
20 | 28.2 |  |  | Cc1ccc(-c2cc(C(=O)N[C@@H](C)CO)cc(N3C(=O)OCC3(C)C)c2)nc1 [Compound 25, 3-(4,4-Dimethyl-2-oxo-oxazolidin-3-yl)-N-((S)-2-hydroxy-1-methyl-ethyl)-5-(5-methyl-pyridin-2-yl)-benzamide]
21 | 1480 |  |  | Cc1ccc(-c2cc(C(=O)NC3CC3)cc(N3C(=O)OC[C@@H]3C(C)C)c2)cc1 [Compound 42, 5-((S)-4-Isopropyl-2-oxo-oxazolidin-3-yl)-4′-methyl-biphenyl-3-carboxylic acid cyclopropylamide]
22 | 3800 |  |  | CCC[C@@H]1COC(=O)N1c1cc(C(=O)N[C@@H](C)CO)cc(-c2ccc(C)cn2)c1 [Compound 22, N-((S)-2-Hydroxy-1-methyl-ethyl)-3-(5-methyl-pyridin-2-yl)-5-((R)-2-oxo-4-propyl-oxazolidin-3-yl)-benzamide]
